Results reported in the supplement of paper PMC11061612.

Legend:
[1] = test system: C-33-A (Cervical Carcinoma); assay: Bliss excess, mean over the matrix (fraction); higher = more synergy
How it was run: (§1)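 After 24 hours at 37°C and 5% CO2 in 1536-well plates, cells in DMEM/F12 or RPMI plus 10% FBS received two-drug dose matrices for 72 hours. Viability came from CellTiter-Glo 2.0 luminescence and was scaled as inhibition, anchored at 0 by vehicle wells and at 1 by blank wells. Combination Emax is taken as the second-highest inhibition in the matrix, and Bliss excess as the observed combination effect less EA + EB − EA·EB, with EA and EB the single-agent effects.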

[2] = test system: COR-L88 (Small Cell Lung Carcinoma); assay: as above
How it was run: as §1

[3] = test system: CPC-N (Small Cell Lung Carcinoma); assay: as above
How it was run: as §1

[4] = test system: HPAF-II (Pancreatic Carcinoma); assay: as above
How it was run: as §1

[5] = test system: IA-LM (Non-Small Cell Lung Carcinoma); assay: as above
How it was run: as §1

[6] = test system: IST-MEL1 (Melanoma); assay: as above
How it was run: as §1

[7] = test system: LCLC-103H (Non-Small Cell Lung Carcinoma); assay: as above
How it was run: as §1

[8] = test system: LS-1034 (Colorectal Carcinoma); assay: as above
How it was run: as §1

[9] = test system: MDA-MB-415 (Breast Carcinoma); assay: as above
How it was run: as §1

[10] = test system: MONO-MAC-6 (Acute Myeloid Leukemia); assay: as above
How it was run: as §1

[11] = test system: NCI-H226 (Mesothelioma); assay: as above
How it was run: as §1

[12] = test system: NCI-H3118 (Head and Neck Carcinoma); assay: as above
How it was run: as §1

[13] = test system: SK-CO-1 (Colorectal Carcinoma); assay: as above
How it was run: as §1

[14] = test system: SNU-423 (Hepatocellular Carcinoma); assay: as above
How it was run: as §1

[15] = test system: CPC-N (Small Cell Lung Carcinoma); assay: combination Emax (second highest fraction inhibited in the dose matrix, 72 h); higher = more inhibition; extreme values may be limits of the assay
How it was run: as §1

[16] = test system: LS-1034 (Colorectal Carcinoma); assay: as above
How it was run: as §1

[17] = test system: MDA-MB-415 (Breast Carcinoma); assay: as above
How it was run: as §1

[18] = test system: MS-1 (Small Cell Lung Carcinoma); assay: as above
How it was run: as §1

[19] = test system: SCC-4 (Oral Cavity Carcinoma); assay: as above
How it was run: as §1

[20] = test system: ZR-75-30 (Breast Carcinoma); assay: as above
How it was run: as §1
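Wherever Bliss excess, mean over the matrix is given: after 72 h of two-drug dosing.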

Row | SMILES | Bliss excess [1] | Bliss excess [2] | Bliss excess [3] | Bliss excess [4] | Bliss excess [5] | Bliss excess [6] | Bliss excess [7] | Bliss excess [8] | Bliss excess [9] | Bliss excess [10] | Bliss excess [11] | Bliss excess [12] | Bliss excess [13] | Bliss excess [14] | combination Emax [15] | combination Emax [16] | combination Emax [17] | combination Emax [18] | combination Emax [19] | combination Emax [20]
1 | C=CCn1c(=O)c2cnc(Nc3ccc(N4CCN(C)CC4)cc3)nc2n1-c1cccc(C(C)(C)O)n1 [AZD1775] + CCc1c2c(nc3ccc(O)cc13)-c1cc3c(c(=O)n1C2)COC(=O)[C@]3(O)CC [SN-38] (first compound max 1 µM, partner max 0.3 µM) | 0.0561 | -0.0248 | 0.0523 | -0.0218 | -0.0699 | -0.0827 | 0.0015 | 0.0498 | -0.009 | -0.0158 | -0.0755 | -0.0284 | -0.0355 | -0.0644 | 0.923 | 0.894 | 0.469 | 0.86 | 0.902 | 0.137
2 | C=CCn1c(=O)c2cnc(Nc3ccc(N4CCN(C)CC4)cc3)nc2n1-c1cccc(C(C)(C)O)n1 [AZD1775] + Nc1ccn([C@@H]2O[C@H](CO)[C@@H](O)C2(F)F)c(=O)n1 [Gemcitabine] (first compound max 1 µM, partner max 0.3 µM) | 0.0713 | 0.0144 |  | 0.0046 | -0.0454 | 0.0144 | 0.0858 | 0.0159 | 0.0228 | 0.0322 | 0.0067 | -0.0638 | -0.0262 | -0.0538 | 0.897 |  | 0.58 | 0.838 | 0.688 | 0.24
3 | CN(CCO)CC[C@H](CSc1ccccc1)Nc1ccc(S(=O)(=O)NC(=O)c2ccc(N3CCC([C@@H](O)c4ccccc4-c4ccc(Cl)cc4)CC3)cc2)cc1S(=O)(=O)C(F)(F)F [AZD4320] + CC(=O)O[C@H]1C(=O)[C@@]2(C)[C@H]([C@H](OC(=O)c3ccccc3)[C@]3(O)C[C@H](OC(=O)[C@H](O)[C@@H](NC(=O)c4ccccc4)c4ccccc4)C(C)=C1C3(C)C)[C@]1(OC(C)=O)CO[C@@H]1C[C@@H]2O [Paclitaxel] (first compound max 1 µM, 7x7, partner max 3 µM) | 0.0811 | 0.25 | 0.0262 | 0.0952 | 0.08 | 0.238 | 0.0719 | 0.0038 | -0.0059 | 0.0285 | 0.131 | 0.019 | -0.0002 | 0.0819 | 1 | 0.82 | 0.923 | 0.971 | 0.971 | 0.326
4 | CN(CCO)CC[C@H](CSc1ccccc1)Nc1ccc(S(=O)(=O)NC(=O)c2ccc(N3CCC([C@@H](O)c4ccccc4-c4ccc(Cl)cc4)CC3)cc2)cc1S(=O)(=O)C(F)(F)F [AZD4320] + CS(=O)(=O)CCNCc1ccc(-c2ccc3ncnc(Nc4ccc(OCc5cccc(F)c5)c(Cl)c4)c3c2)o1 [Lapatinib] (first compound max 1 µM, 7x7, partner max 10 µM) | 0.0074 | 0.0911 | 0.052 | 0.031 | -0.0137 | -0.0011 | -0.0224 | 0.0441 | 0.0355 | 0.103 | -0.0437 | 0.0041 | 0.0785 | 0.017 | 0.977 | 0.939 | 0.917 | 0.971 | 0.942 | 0.957
5 | CN(CCO)CC[C@H](CSc1ccccc1)Nc1ccc(S(=O)(=O)NC(=O)c2ccc(N3CCC([C@@H](O)c4ccccc4-c4ccc(Cl)cc4)CC3)cc2)cc1S(=O)(=O)C(F)(F)F [AZD4320] + Nc1ccn([C@@H]2O[C@H](CO)[C@@H](O)C2(F)F)c(=O)n1 [Gemcitabine] (first compound max 1 µM, 7x7, partner max 0.3 µM) | 0.0113 | 0.0283 | 0.0415 | -0.0087 | 0.0296 | 0.134 | -0.0122 | -0.0357 | 0.0347 | -0.0237 | -0.0209 | -0.0638 | -0.0065 | 0.0088 | 0.962 | 0.592 | 0.637 | 0.78 | 0.743 | 0.216
6 | Cc1c2c(nn1C)CSCc1cc(n(C)n1)CSc1cc(c3ccccc3c1)OCCCc1c(C(=O)O)n(C)c3c-2c(Cl)ccc13 [AZD5991] + CC(=O)O[C@H]1C(=O)[C@@]2(C)[C@H]([C@H](OC(=O)c3ccccc3)[C@]3(O)C[C@H](OC(=O)[C@H](O)[C@@H](NC(=O)c4ccccc4)c4ccccc4)C(C)=C1C3(C)C)[C@]1(OC(C)=O)CO[C@@H]1C[C@@H]2O [Paclitaxel] (first compound max 1 µM, 7x7, partner max 3 µM) | -0.0095 | 0.0486 | -0.0539 | 0.0356 | -0.0452 | -0.0215 | -0.0118 | -0.0473 | 0.0268 | 0.0152 | -0.008 | 0.0079 | -0.052 | -0.0344 | 0.773 | 0.587 | 0.838 | 0.867 | 0.868 | 0.441
7 | Cc1c2c(nn1C)CSCc1cc(n(C)n1)CSc1cc(c3ccccc3c1)OCCCc1c(C(=O)O)n(C)c3c-2c(Cl)ccc13 [AZD5991] + CS(=O)(=O)CCNCc1ccc(-c2ccc3ncnc(Nc4ccc(OCc5cccc(F)c5)c(Cl)c4)c3c2)o1 [Lapatinib] (first compound max 1 µM, 7x7, partner max 10 µM) | 0.0485 | -0.0283 | -0.0429 | -0.0209 | -0.0292 | -0.005 | -0.025 | -0.0332 | 0.0015 | 0.0012 | -0.0183 | 0.0426 | 0.0034 | -0.0272 | 0.327 | 0.39 | 0.558 | 0.535 | 0.81 | 0.974
8 | Cc1c2c(nn1C)CSCc1cc(n(C)n1)CSc1cc(c3ccccc3c1)OCCCc1c(C(=O)O)n(C)c3c-2c(Cl)ccc13 [AZD5991] + Nc1ccn([C@@H]2O[C@H](CO)[C@@H](O)C2(F)F)c(=O)n1 [Gemcitabine] (first compound max 1 µM, 7x7, partner max 0.3 µM) | 0.0332 | 0.0854 | -0.0387 | -0.0059 | -0.0384 | -0.0045 | -0.0722 | -0.0473 | -0.0407 | -0.0133 | -0.024 | -0.0107 | -0.0284 | -0.0672 | 0.754 | 0.614 | 0.526 | 0.722 | 0.53 | 0.36
9 | C[C@@H]1COCCN1c1cc(C2([S@](C)(=N)=O)CC2)nc(-c2ccnc3[nH]ccc23)n1 [AZD6738] + C1CC(C1)(C(=O)[O-])C(=O)[O-].N.N.[Pt+2] [Carboplatin] (first compound max 10 µM, 7x7, partner max 10 µM) | -0.0043 | -0.0207 | -0.0391 | -0.0585 | -0.047 | -0.0271 | -0.0447 | -0.0575 | 0.0134 | -0.0075 | -0.0383 | -0.0423 | 0.0009 | -0.0425 | 0.8 | 0.677 | 0.549 | 0.659 | 0.552 | 0.262
10 | C[C@@H]1COCCN1c1cc(C2([S@](C)(=N)=O)CC2)nc(-c2ccnc3[nH]ccc23)n1 [AZD6738] + Nc1ccn([C@@H]2O[C@H](CO)[C@@H](O)C2(F)F)c(=O)n1 [Gemcitabine] (first compound max 10 µM, 7x7, partner max 0.3 µM) | 0.032 | 0.105 | 0.0021 |  | -0.027 | 0.0314 | 0.0863 | 0.0853 | 0.065 | 0.0427 | 0.041 | 0.0134 | 0.0365 | 0.0969 | 0.949 | 0.902 | 0.642 | 0.961 | 0.849 | 0.269
11 | Cc1cc2ncnn2cc1Nc1ncc2c(n1)n(C1CCOCC1)c(=O)n2C [AZD7648] + COc1cc([C@@H]2c3cc4c(cc3[C@@H](O[C@@H]3O[C@@H]5CO[C@@H](C)O[C@H]5[C@H](O)[C@H]3O)[C@H]3COC(=O)[C@H]23)OCO4)cc(OC)c1O [Etoposide] (first compound max 10 µM, 7x7, partner max 10 µM) | 0.0997 | -0.0241 | 0.0611 | 0.0098 | -0.0116 | 0.0192 | 0.0526 | -0.0205 | 0.0025 | 0.159 | 0.0215 | 0.0669 | 0.0429 | 0.0551 | 0.906 | 0.335 | 0.483 | 0.842 | 0.469 | 0.258
12 | C[C@@H](Nc1cc(F)cc(F)c1)c1cc(C(=O)N(C)C)cc2c(=O)cc(N3CCOCC3)oc12 [AZD8186] + C1CN(CCC1(C(=O)N[C@@H](CCO)C2=CC=C(C=C2)Cl)N)C3=NC=NC4=C3C=CN4 [AZD5363] (first compound max 10 µM, 7x7, partner max 10 µM) | -0.0501 | -0.0269 | -0.0478 | 0.0403 | 0.001 | -0.013 | -0.0345 | -0.0177 | -0.0251 | 0.0692 | -0.0272 | -0.022 | 0.0309 | -0.0692 | 0.33 | 0.294 | 0.834 | 0.223 | 0.383 | 0.441
13 | N#Cc1cnc(Nc2cc(NC[C@H]3CNCCO3)c(C(F)(F)F)cn2)cn1 [SRA737] + C=CCn1c(=O)c2cnc(Nc3ccc(N4CCN(C)CC4)cc3)nc2n1-c1cccc(C(C)(C)O)n1 [AZD1775] (first compound max 10 µM, partner max 1 µM) | 0.0919 | 0.111 | 0.0589 | 0.0176 | 0.0224 | 0.046 | 0.0146 | 0.142 | 0.0133 | 0.0824 | -0.0457 | 0.0583 | 0.0306 | 0.0786 |  | 0.809 | 0.318 | 0.926 | 0.64 | 0.266
